Test results as given in article PMC12196476, “New Nitrogen-, Oxygen-, and Sulfur-Containing Heterocyclic Compounds as Anti-Colon Cancer Agents: Synthesis, Multitargeted Evaluations, Molecular Docking Simulations and ADMET Predictions” (Pharmaceuticals, 2025).

What was measured:
[1] = Cell viability, LDH release assay, normal HUVECs; conditions: human, normal HUVECs, Mean % of viable cells ± SD, HUVEC
Experimental: (§1) The studied compounds were also screened for their cytotoxic effects on HCT-116 and LoVo colon carcinoma cells, as well as normal HUVECs, using the standard LDH assay at a concentration of 100 µg/mL.
(§2) The antiproliferative activities of the newly synthesized compounds 3a–e, 8, 9a–c, 13, 14, 17, 18a–h, 20, 22, 23 and 25 were examined on human colon HCT-116 and LoVo cell lines as well as HUVEC (American Type Culture Collection, Manassas, VA, USA). […]
medium served used as negative and positive controls, respectively. Percentages of viable cells […]
were calculated based on relative optical density (OD) values (at 550 nm) for compound-treated […]
wells (final concentration of 100 μg/mL), compared to the negative control, and expressed as mean value (%) ± SD from two replicates. Graphing dose-response curves representing the compound […]
concentration versus the percentages of viable cells was also conducted to deduce the half - […]
Additionally, the safety profiles of the studied compounds were assessed against normal cells […]
(HUVECs) at final concentration of 100 μg/mL . HUVECs were grown in Dulbecco’s Modified Eagle’s Medium supplemented with 10% FBS, 2 mM glutamine (Sigma Aldrich), 100 units/mL penicillin and […] streptomycin (Life Technologies; Paisley, UK). […]

[2] = system: LoVo colon carcinoma cells; experiment: Cell viability, LDH release assay, LoVo; conditions: Homo sapiens, LoVo, 48 h; for viability at 100 µg/mL: read-out: Mean % of viable cells ± SD, LoVo, 100 µg/mL, 48 h, LDH release assay; for IC50: read-out: Mean IC50 Values in µM ± SD, LoVo cells
Experimental: as §1, §2
(§3) S3.2.4. Cell culture and viability assay.
(§4) The cytotoxic activities of the newly synthesized compounds (3a-e, 8, 9a-c, 13, 14, 17, 18a-h, 20, 22,
(§5) 23, and 25) were examined on human colon cancer cell lines HCT-116 and Lovo (American Type
(§6) Culture Collection, USA). Various concentrations (50, 100, 200, and 400 μg/mL) of test compounds
(§7) were prepared in Dulbecco’s Modified Eagles Medium (PAN-Biotech, Barcelona, Spain),

[3] = DPPH radical scavenging assay; conditions: three independent experiments; read-out: Mean IC50 (mM) for initial DPPH radicals ± SD
Experimental: The antioxidant activities of the studied compounds were assessed using the 1,1-diphenyl-2-picrylhydrazyl (DPPH) radical scavenging method as detailed by Bersuder et al.. The results were expressed as IC50 (mM)—the concentration of the test compound required to neutralize 50% of DPPH radicals.
The antioxidant efficiencies of target compounds were determined using the 1,1-diphenyl-2-picrylhydrazyl (DPPH) radical scavenging method as detailed by Bersuder et al.. […]
S3.2. Evaluation of Biological Activities.
S3.2.1. In vitro DPPH radical scavenging assay.
The antioxidant efficiencies of compounds—3a−e, 8, 9a−c, 13, 14, 17, 18a−h, 20, 22, 23, and 25—were
determined using the 1,1-diphenyl-2-picrylhydrazyl (DPPH) radical scavenging method as
detailed by Bersuder et al.. Fundamentally, the purple color of the stabilized DPPH radical
fades in the presence of an antioxidant, thus, the change of absorbance can be followed
spectrophotometrically at 519 nm. In the assay, equal volumes (0.5 mL) of DPPH ethanolic solution
and each compound (0-2 mg/mL in DMSO) or butylated hydroxytoluene (BHT) as the reference
were mixed well by shaking. The negative control consisted of the same amount of DMSO and
DPPH solution. After, incubation all mixtures at room temperature in the dark for one hour, the
absorbance of the residual DPPH radicals was measured at 519 nm using the UV‐vis
spectrophotometer. The DPPH radical scavenging activity of each compound (%) was calculated
Scavenging activity = (1 − Acompound/AControl) * 100, where Acompound and Acontrol the absorbance values
of each tested compound (or BHT) and the negative control, respectively. The half maximal
inhibitory concentration (IC50) for each compound in mg/mL was deduced by graphing the dose-
response curve relating the scavenging activity (%) to the compound concentration. Data points
represent the mean ± standard deviation (SD) of three independent determinations.

PDK-1 = PDK-1 (Homo sapiens, UniProt Q15118); experiment: In vitro PDK-1 inhibition assay (Kinase-Glo luminescent kinase kit); format: biochemical; conditions: for inhibition at 100 µg/mL: three replicates, read-out: Mean Inhibition Percent ± SD, PDK-1; for IC50: three independent experiments, read-out: Mean IC50 µM ± SD, PDK-1
PDK-1, sequence (Q15118 29-436): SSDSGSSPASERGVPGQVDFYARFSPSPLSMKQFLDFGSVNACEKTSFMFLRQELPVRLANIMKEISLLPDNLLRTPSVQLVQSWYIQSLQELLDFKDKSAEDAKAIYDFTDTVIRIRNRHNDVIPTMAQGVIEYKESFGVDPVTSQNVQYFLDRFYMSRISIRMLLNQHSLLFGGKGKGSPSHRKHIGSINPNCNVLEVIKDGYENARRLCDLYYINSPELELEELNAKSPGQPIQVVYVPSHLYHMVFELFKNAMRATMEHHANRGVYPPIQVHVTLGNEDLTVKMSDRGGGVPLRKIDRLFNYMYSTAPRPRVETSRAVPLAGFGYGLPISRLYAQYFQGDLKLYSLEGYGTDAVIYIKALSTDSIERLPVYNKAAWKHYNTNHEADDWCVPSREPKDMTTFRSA
Experimental: Principally, the PDK-1 inhibitory activities were evaluated using the non-radioactive Kinase-Glo™ Luminescent Kinase Kit (Promega Corporation, Madison, WI, USA) following the instructions of the manufacturer.
S3.2.2. In vitro PDK-1 inhibition assay.
The PDK-1 inhibitory activities of the test compounds were evaluated using the non-radioactive
Kinase-Glo™ Luminescent Kinase kit (Promega Corporation, Madison, WI, USA), following the
manufacturer’s protocol. Briefly, 5 μL of assay buffer—containing 10 × 250 mM Tris-HCl, 50 mM
MgCl2, 5 mM ethyleneglycol-bis(β-aminoethylether)-N,N,N′,N′-tetraacetic acid (EGTA), 10 mM
ethylenedi- aminetetraacetic acid (EDTA), and 10 mM dithiothreitol (DTT)—was added to each
well of a 96-well plate, along with 25 μL of distilled water. Subsequently, 5 μL of each test
compound at various concentrations (50, 100, 200 and 300 μg/mL in 1% DMSO) was added to the
respective wells, except for the two control wells, which received 5 μL of either PBS buffer or 1%
DMSO. Then, 5 μL of pyruvate dehydrogenase E1 (PDH E1) protein (10 μM) and 5 μL of ATP
(10 μM) were added to each well. To initiate phosphorylation, 5 μL of PDK-1 (20 μM) in protein
buffer (1 mM MgCl2, 2000 mM KCl, 40 mM K3PO4) was added to all the wells except the control
wells, which received 5 μL of protein buffer instead. The plate was then mixed thoroughly and
incubated at 37 °C for 30 minutes. After incubation, 50 μL of kinase-Glo® reagent was added to each
well, followed by a 10-minute incubation at room temperature with gentle shaking to stabilize the
luminescent signal. Luminescence was then measured using a microplate reader.
The IC50 value—defined as the concentration of a compound required to reduce luminescence by
50%, compared to untreated control wells—was determined for each compound from the
corresponding dose–response curve generated by plotting PDK-1 inhibition (%) versus compound
concentration. Sodium dichloroacetate (SDA, 1000 μM) was used as a reference PDK-1inhibitor. […]

[4] = target: recombinant human LDHA protein (Homo sapiens, UniProt P00338); experiment: In vitro LDHA inhibitory assay (NADH consumption); format: biochemical; conditions: for inhibition at 100 µg/mL: three replicates, read-out: Mean Inhibition Percent ± SD, LDHA; for IC50: three independent experiments, read-out: Mean IC50 µM ± SD, LDHA
From the text: The LDHA inhibitory efficiencies were investigated on Spectramax M2 spectrofluorometer via measuring the amounts of the consumed NADH^40 using an NAD^+/NADH quantification kit. […]
S3.2.3. In vitro LDHA inhibitory assay.
The LDHA inhibitory activity of the test compounds was investigated using Spectramax M2
spectrofluorometer by measuring the amounts of the consumed NADH [42] employing
NAD+/NADH quantification kit. Briefly, the assay medium containing various concentrations of
each test compound (50, 100, 200 and 300 μg/mL) was incubated in assay medium composed of 20
mM of HEPES-K+ buffer (pH 7.2), 20 μM of NADH, 2 mM of pyruvate and 10 ng of purified
recombinant human LDHA protein for 10 min utes. The activity of LDHA would result in reduction
of pyruvate into lactate with concomitant oxidation of NADH to NAD +. Since NADH (reduced
LDHA, could be inversely quantified by monitoring the change in the intensity of the fluorescence
at 340 nm over a 10-minute period. The rate of the fluorescence change (slope) in treated samples
was compared to that obtained from negative control experiment (100 % enzymatic activity) to
determine the percentage of inhibition. The IC50 value—defined as the compound concentration
required to reduce the luminescence by 50%, compared to untreated control wells—was
determined for each compound from the corresponding dose–response curve generated by
plotting LDHA inhibition (%) against compound concentration.
was used as the reference LDHA inhibitor. […]

[5] = system: HCT-116 colon carcinoma cells; experiment: Cell viability, LDH release assay, HCT-116; conditions: Homo sapiens, HCT-116, 48 h; for viability at 100 µg/mL: read-out: Mean % of viable cells ± SD, HCT-116, 100 µg/mL, 48 h, LDH release assay; for IC50: read-out: Mean IC50 Values in µM ± SD, HCT-116 cells
Experimental: as §1, §2, §3, §4, §5, §6, §7

Structure (SMILES)	viability at 48 h, 100 µg/mL [1]	viability at 100 µg/mL [2]	IC50 [2]	IC50 [3]	inhibition at 100 µg/mL (PDK-1)	IC50 (PDK-1)	inhibition at 100 µg/mL [4]	IC50 [4]	viability at 100 µg/mL [5]	IC50 [5]
COc1cc2nc(C)n(C3CCCCC3)c(=O)c2cc1OC [Compound 14, 3-Cyclohexyl-6,7-dimethoxy-2-methylquinazolin-4(3H)-one]	95 ± 1.82%	13 ± 1.14%	292.1 ± 1.17 µM	0.327 ± 0.007 mM	80.5 ± 4.95%	192 ± 5.57 µM	37 ± 2.83%	378 ± 3.98 µM	12.5 ± 0.71%	293 ± 5.38 µM
CCOC(=O)Nn1c(C)nc2cc(OC)c(OC)cc2c1=O [Compound 17, Ethyl (6,7-Dimethoxy-2-methyl-4-oxoquinazolin-3(4H)-yl)carbamate]	96 ± 2.56%	10.5 ± 0.71%	277 ± 0.21 µM	0.307 ± 0.01 mM	91 ± 2.83%	169 ± 1.81 µM	5.75 ± 0.35%	1060 ± 7.64 µM	20.5 ± 2.12%	302 ± 10.5 µM
COc1cc(OC)c(/C=N/n2c(C)nc3cc(OC)c(OC)cc3c2=O)c(OC)c1 [Compound 18a, (E)-6,7-Dimethoxy-2-methyl-3-((2,4,6-trimethoxybenzylidene)amino)quinazolin-4(3H)-one]	85 ± 1%	48.3 ± 2.83%	132 ± 7.4 µM	1.38 ± 0.039 mM	66.7 ± 1.53%	–	16.6 ± 0.78%	–	40.7 ± 4.16%	210 ± 2.42 µM
COc1cc2nc(C)n(/N=C/c3ccc(C(F)(F)F)cc3)c(=O)c2cc1OC [Compound 18c, (E)-6,7-Dimethoxy-2-methyl-3-((4-(trifluoromethyl)benzylidene)amino)quinazolin-4(3H)-one]	91.3 ± 2.08%	63 ± 3%	–	0.606 ± 0.015 mM	44.7 ± 1.53%	–	21.1 ± 0.99%	–	71.3 ± 6.51%	–
COc1cc(/C=N/n2c(C)nc3cc(OC)c(OC)cc3c2=O)ccc1O [Compound 18d, (E)-3-((4-Hydroxy-3-methoxybenzylidene)amino)-6,7-dimethoxy-2-methylquinazoli-N-4(3H)-one]	86.3 ± 1.53%	30.7 ± 4.24%	202 ± 7.82 µM	0.658 ± 0.016 mM	65 ± 3.46%	–	12.2 ± 1.98%	–	38 ± 2%	238 ± 8.12 µM
COc1cc(OC)c(/C=N/n2c(C)nc3ccc(F)cc3c2=O)c(OC)c1 [Compound 18e, (E)-6-Fluoro-2-methyl-3-((2,4,6-trimethoxybenzylidene)amino)quinazolin-4(3H)-one]	83 ± 3.61%	88.7 ± 3.21%	–	0.781 ± 0.046 mM	30 ± 1%	–	36.8 ± 1.91%	–	87.3 ± 2.08%	–
Cc1nc2ccc(F)cc2c(=O)n1/N=C/c1c(O)ccc2ccccc12 [Compound 18f, (E)-6-Fluoro-3-(((2-hydroxynaphthalen-1-yl)methylene)amino)-2-methylquinazolin-4(3H)-one]	83 ± 1.73%	73 ± 3.46%	–	0.288 ± 0.029 mM	52 ± 3.61%	–	14.4 ± 1.41%	–	83 ± 3%	–
COc1ccc(/C=N/n2c(C)nc3ccc(F)cc3c2=O)cc1O [Compound 18g, (E)-6-Fluoro-3-((3-hydroxy-4-methoxybenzylidene)amino)-2-methylquinazolin-4(3H)-one]	88 ± 2.65%	74.7 ± 2.52%	–	0.238 ± 0.006 mM	66 ± 1.73%	–	22.2 ± 1.13%	–	58.7 ± 3.06%	–
Cc1nc2ccc(F)cc2c(=O)n1/N=C/c1cccs1 [Compound 18h, (E)-6-Fluoro-2-methyl-3-((thiophen-2-ylmethylene)amino)quinazolin-4(3H)-one]	78 ± 2%	33 ± 4.24%	479 ± 19.2 µM	0.379 ± 0.004 mM	37 ± 3.61%	–	18.9 ± 1.77%	–	37 ± 2%	498 ± 12.6 µM
CCOC(=O)c1sc(NC(=O)/C(=C/c2ccc(OC(C)=O)c(OC)c2)NC(=O)c2ccccc2)nc1C [Compound 20, Ethyl (Z)-2-(3-(4-Acetoxy-3-methoxyphenyl)-2-benzamido-acrylamido)-4-methylthiazole-5-carboxylate]	73 ± 2.75%	51 ± 2.83%	–	0.745 ± 0.027 mM	28.2 ± 1.06%	–	16.9 ± 1.27%	–	49 ± 2.83%	–
